Source: patent US20050187302A1, “Method for treatment or prevention of osteoporosis in individuals with high bone turnover” (Hormos Medical Corporation, priority 2004, published 2005)
Like-named read-outs stand apart in the source and are kept apart here.

Tests used:
[1] = test system: ovariectomized (OVX) female rats; settings: female rats 2 months old, ospemifene 10 mg/kg, change from baseline, n = 6
Experimental: (§1) High bone turnover was induced to 2-4 months old female rats by ovariectomy (OVX). Treatment with ospemifene was started at different time points after OVX: 1 day, 1, 2, and 3 months after OVX. Bone resorption was evaluated in short-term by bone specific TRAP5b, which is a […] secreted specifically by osteoclasts, and later by pyridinoline/deoxypyridinoline cross links, which are degradation products of bone collagen and excreted in the urine. Finally, during autopsy, usually after 3 months treatment, trabecular bone mineral density was measured.

[2] = test system: ovariectomized (OVX) female rats; settings: for Urine total pyridinoline/deoxypyridoline crosslinks, change from base line at 30 days: started one day after OVX, 30 days after OVX; for Trabecular BMD mg/cm^2: 3 months treatment, tibial trabecular bone
Experimental: as §1
Female rats, age about 4 months, were ovariectomized. Treatment with vehicle or ospemifene was started at different periods after OVX (from one day to 3 months). The ospemifene doses were 5, 10 or 25 mg/kg and the treatment period was 3 months. Evaluation of the bone occurred by bone mineral density measurement of tibial trabecular bone after the treatment and in some groups also by bone collagen degradation products excreted in the urine.

[3] = test system: postmenopausal women; settings: postmenopausal women with high bone marker levels at baseline, daily doses 60 mg and 90 mg, 12 weeks
Experimental: In the clinical trials, bone turnover was evaluated by measuring the levels of bone formation markers in serum and bone resorption markers in urine. Both bone resorption markers e.g. amino terminal telopeptide of type I collagen (U-NTX) and carboxy terminal telopeptide of type I collagen (U-CTX) and formation markers e.g. amino terminal propeptide of type I procollagen (S-PINP) and carboxy terminal propeptide of type I procollagen (S-PICP) are increased in menopause, indicating high bone turnover.
Most of the women had normal bone marker levels at baseline. […] The upper limit of normal range in women was 84 μg/l for S-PINP, 65 nmol/mmol Crea for U-NTX, 170 μg/l for S-PICP and 680 μg/mmol Crea for U-CTX.

Which “Change of TRAP5b activity in serum (%) 2 days after OVX” value [1] does the source give for OCCOc1ccc(/C(=C(/CCCl)c2ccccc2)c2ccccc2)cc1 [Ospemifene] here?
Its value is −23.3 ± 5.8%.

And the “Urine total pyridinoline/deoxypyridoline crosslinks, change from base line at 30 days” value ([2]; 5 mg/kg daily)?
The value was 55 ± 16.

What about the “Trabecular BMD mg/cm^2” value ([2]; 5 mg/kg, treatment started 1 day after OVX, n = 20) of the same molecule?
Its value is 374 ± 21 mg/cm^2.

And the “Trabecular BMD mg/cm^2” value ([2]; 10 mg/kg, treatment started 1 month after OVX, n = 8)?
The value was 138 ± 24 mg/cm^2.

What about the “Trabecular BMD mg/cm^2” value ([2]; 10 mg/kg, treatment started 2 months after OVX, n = 8) of the same molecule?
The value was 78 ± 14 mg/cm^2.

And the “Trabecular BMD mg/cm^2” value ([2]; 10 mg/kg, treatment started 3 months after OVX, n = 8)?
Its value is 78 ± 17 mg/cm^2.

And the “Urine total pyridinoline/deoxypyridoline crosslinks, change from base line at 30 days” value ([2]; 25 mg/kg daily)?
The value was 33 ± 20.

And the “Trabecular BMD mg/cm^2” value ([2]; 25 mg/kg, treatment started 1 day after OVX, n = 20)?
The value was 392 ± 15 mg/cm^2.

What about the “Excretion of crosslinks, resorption marker (in words)” value ([2]; first month after OVX, high bone turnover) of the same molecule?
Its value is “significantly decreases the excretion of crosslinks”.

And the “Effect on OVX-induced bone loss (in words)” value ([2]; treatment started 1 month after OVX, bone turnover high)?
Its value is “significant beneficial bone effect”.

What about the “Effect on OVX-induced bone loss (in words)” value ([2]; treatment started 2 months after OVX, bone turnover markedly decreased) of the same molecule?
Its value is “modest beneficial bone effect”.

What about the “Effect on OVX-induced bone loss (in words)” value ([2]; treatment started 3 months after OVX, bone turnover low) of the same molecule?
The value was “almost lost the benefial bone effect”.

And the “Effect on OVX-induced bone loss (in words)” value ([2]; treatment started 1 day after OVX, bone turnover very high)?
Its value is “able to prevent almost completely the OVX-induced bone loss”.

And the “Change in bone formation and resorption markers (S-PINP, S-PICP, U-CTX, U-NTX) (in words)” value [3]?
The value was “large decrease both in formation and resorption bone markers”.
